Literature values as cited in patent publication US9927424B2, “Assays for identifying compounds that modulate bitter taste” (Chromocell Corporation, priority 2013, dated 2018).

What was measured:
Details in all cases: PCT/US12/61400; cited from earlier work
TAS2R4 = target: T1, TAS2R4 (Homo sapiens, UniProt Q9NYW5)
T1 construct: expressed in transfected cells
T1 sequence (Q9NYW5 1-299): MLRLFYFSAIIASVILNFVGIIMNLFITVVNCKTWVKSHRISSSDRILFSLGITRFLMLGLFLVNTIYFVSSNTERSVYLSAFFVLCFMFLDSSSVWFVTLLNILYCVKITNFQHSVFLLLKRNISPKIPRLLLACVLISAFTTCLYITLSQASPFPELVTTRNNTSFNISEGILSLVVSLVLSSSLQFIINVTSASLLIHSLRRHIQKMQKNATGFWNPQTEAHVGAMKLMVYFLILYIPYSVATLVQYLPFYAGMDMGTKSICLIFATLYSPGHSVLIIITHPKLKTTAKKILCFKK

TAS2R9 = target: T2, TAS2R9 (Homo sapiens, UniProt Q9NYW1)
T2 construct: expressed in transfected cells
T2 sequence (Q9NYW1 1-312): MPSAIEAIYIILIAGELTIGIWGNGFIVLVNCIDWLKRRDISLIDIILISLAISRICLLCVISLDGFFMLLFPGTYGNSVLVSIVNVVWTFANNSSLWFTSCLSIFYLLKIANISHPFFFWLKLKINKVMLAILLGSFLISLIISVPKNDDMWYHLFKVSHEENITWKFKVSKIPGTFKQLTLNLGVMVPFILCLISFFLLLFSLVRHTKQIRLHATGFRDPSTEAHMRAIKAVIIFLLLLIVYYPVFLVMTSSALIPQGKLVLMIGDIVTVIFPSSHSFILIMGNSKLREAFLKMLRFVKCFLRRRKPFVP

TAS2R13 = target: T3, TAS2R13 (Homo sapiens, UniProt Q9NYV9)
T3 construct: expressed in transfected cells
T3 sequence (Q9NYV9 1-303): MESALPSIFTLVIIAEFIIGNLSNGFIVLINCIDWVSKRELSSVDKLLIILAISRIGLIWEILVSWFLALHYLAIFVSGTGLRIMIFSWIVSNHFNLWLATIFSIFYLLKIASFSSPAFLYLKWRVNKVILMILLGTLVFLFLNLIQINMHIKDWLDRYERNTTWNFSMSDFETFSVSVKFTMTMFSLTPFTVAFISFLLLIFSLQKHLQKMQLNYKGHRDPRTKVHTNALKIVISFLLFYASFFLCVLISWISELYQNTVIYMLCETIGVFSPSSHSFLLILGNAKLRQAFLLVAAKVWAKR

TAS2R60 = target: T4, TAS2R60 (Homo sapiens, UniProt P59551)
T4 construct: expressed in transfected cells
T4 sequence (P59551 1-318): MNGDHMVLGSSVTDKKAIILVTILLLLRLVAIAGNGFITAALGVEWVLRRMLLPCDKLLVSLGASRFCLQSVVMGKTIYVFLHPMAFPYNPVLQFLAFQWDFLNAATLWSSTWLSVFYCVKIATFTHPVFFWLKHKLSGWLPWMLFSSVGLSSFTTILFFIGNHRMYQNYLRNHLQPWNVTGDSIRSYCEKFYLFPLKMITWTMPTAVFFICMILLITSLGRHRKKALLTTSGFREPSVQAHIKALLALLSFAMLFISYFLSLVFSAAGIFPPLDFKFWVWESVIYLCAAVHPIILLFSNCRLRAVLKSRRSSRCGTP

[Cl-].[K+] [KCl]
specifically respond: TAS2R4 response to stimulation, previously shown (TAS2R4) | TAS2R9 response to stimulation, previously shown (TAS2R9) | TAS2R13 response to stimulation, previously shown (TAS2R13) | TAS2R60 response to stimulation, previously shown (TAS2R60)
